Test results taken from patent US11649255B2, “Indazoles as hematopoietic progenitor kinase 1 (HPK1) inhibitors and methods using same” (1st Biotherapeutics, Inc., priority 2020, dated 2023).

Molecular target: recombinant human HPK1 (Homo sapiens (Human), UniProt Q92918)
Assay: HPK1 kinase assay (ADP-Glo)
Type: biochemical
Details: 25 μM ATP, MBP substrate
Procedure, shortened: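 Activity was read as ADP formed, detected by ADP-Glo luminescence after the reaction of 5 ng recombinant human HPK1 with MBP and ATP (stocks 0.5 μg/μl and 25 μM) for 40 min at 30 °C. Buffer was Tris pH 7.5 with MgCl2, BSA and DTT, with compound in 0.5% DMSO. IC50 came from inhibition curves.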

Sequence of recombinant human HPK1 (Q92918 whole entry): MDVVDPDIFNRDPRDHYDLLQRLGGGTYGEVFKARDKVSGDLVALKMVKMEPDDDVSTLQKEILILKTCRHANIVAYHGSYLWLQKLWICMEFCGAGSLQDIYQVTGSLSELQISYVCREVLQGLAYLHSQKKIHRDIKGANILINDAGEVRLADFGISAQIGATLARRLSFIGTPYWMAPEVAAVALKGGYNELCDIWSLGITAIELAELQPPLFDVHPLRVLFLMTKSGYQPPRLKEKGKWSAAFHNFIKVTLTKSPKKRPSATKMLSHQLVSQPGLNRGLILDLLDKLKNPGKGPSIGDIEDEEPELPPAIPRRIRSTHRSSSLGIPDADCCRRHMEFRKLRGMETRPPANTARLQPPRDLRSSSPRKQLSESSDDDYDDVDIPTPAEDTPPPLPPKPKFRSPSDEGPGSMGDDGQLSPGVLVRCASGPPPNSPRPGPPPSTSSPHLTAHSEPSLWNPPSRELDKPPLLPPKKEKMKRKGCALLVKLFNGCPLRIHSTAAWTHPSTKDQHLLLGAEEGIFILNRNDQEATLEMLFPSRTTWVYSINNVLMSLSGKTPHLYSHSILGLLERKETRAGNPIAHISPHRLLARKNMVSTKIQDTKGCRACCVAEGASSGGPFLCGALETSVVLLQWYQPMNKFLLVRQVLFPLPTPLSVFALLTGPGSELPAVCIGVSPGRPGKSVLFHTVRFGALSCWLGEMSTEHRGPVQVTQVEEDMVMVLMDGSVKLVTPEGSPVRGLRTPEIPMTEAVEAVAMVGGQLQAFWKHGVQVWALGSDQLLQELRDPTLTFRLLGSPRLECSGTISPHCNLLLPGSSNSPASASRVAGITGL

Row | SMILES | IC50
1 | CNc1c(F)c(Cl)c(-c2ccn3nc(NC(=O)[C@@H]4C[C@@H]4F)cc3c2)c2cn[nH]c12 [Example 494, (1S,2S)-N-(5-(5-chloro-6-fluoro-7-(methylamino)-1H-indazol-4-yl)pyrazolo[1,5-a]pyridin-2-yl)-2-fluorocyclopropane-1-carboxamide] | < 100 nM
2 | C=Cc1c(F)c(C)c(-c2ccc3nc(NC(=O)[C@@H]4C[C@@H]4F)sc3c2)c2cn[nH]c12 [Example 62, (1S,2S)-2-fluoro-N-(6-(6-fluoro-5-methyl-7-vinyl-1H-indazol-4-yl)benzo[d]thiazol-2-yl)cyclopropane-1-carboxamide] | 101 to 500 nM
3 | CSc1ccc2[nH]ncc2c1-c1ccc2nc(NC(=O)C3CC3)cn2c1 [Example 247, N-(6-(5-(methylthio)-1H-indazol-4-yl)imidazo[1,2-a]pyridin-2-yl)cyclopropanecarboxamide] | < 100 nM
4 | CN(C)C(=O)c1c(F)cc2[nH]ncc2c1-c1ccc2nc(NC(=O)[C@@H]3C[C@@H]3F)cn2c1 [Example 355, 6-fluoro-4-(2-((1S,2S)-2-fluorocyclopropane-1-carboxamido)imidazo[1,2-a]pyridin-6-yl)-N,N-dimethyl-1H-indazole-5-carboxamide] | > 1000 nM
5 | CN(Cc1cccnc1)c1c(F)c(Cl)c(-c2ccc3nc(NC(=O)[C@@H]4C[C@@H]4F)cn3c2)c2cn[nH]c12 [Example 349, (1S,2S)-N-(6-(5-chloro-6-fluoro-7-(methyl(pyridin-3-ylmethyl)amino)-1H-indazol-4-yl)imidazo[1,2-a]pyridin-2-yl)-2-fluorocyclopropane-1-carboxamide] | < 100 nM
6 | O=C(Nc1cn2cc(-c3c(C(F)F)ccc4[nH]ncc34)ccc2n1)C1CC1 [Example 249, N-(6-(5-(difluoromethyl)-1H-indazol-4-yl)imidazo[1,2-a]pyridin-2-yl)cyclopropanecarboxamide] | 101 to 500 nM
7 | CSc1c(F)c(F)c2[nH]ncc2c1-c1ccn2nc(NC(=O)[C@H]3C[C@H]3F)cc2c1 [Example 598, (1R,2R)-N-(5-(6,7-difluoro-5-(methylthio)-1H-indazol-4-yl)pyrazolo[1,5-a]pyridin-2-yl)-2-fluorocyclopropane-1-carboxamide] | < 100 nM
8 | CC(NC=O)c1c(F)c(Cl)c(-c2ccn3nc(NC(=O)[C@@H]4C[C@@H]4F)cc3c2)c2cn[nH]c12 (stereo partly drawn) [Example 659, (1S,2S)-N-(5-(5-chloro-6-fluoro-7-(1-formamidoethyl)-1H-indazol-4-yl)pyrazolo[1,5-a]pyridin-2-yl)-2-fluorocyclopropane-1-carboxamide] | < 100 nM
9 | O=C(Nc1cc2cc(-c3c(Br)c(F)cc4[nH]ncc34)ccn2n1)[C@@H]1C[C@@H]1F [Example 464, (1S,2S)-N-(5-(5-bromo-6-fluoro-1H-indazol-4-yl)pyrazolo[1,5-a]pyridin-2-yl)-2-fluorocyclopropane-1-carboxamide] | < 100 nM
10 | COC[C@H](C)c1c(F)c(Cl)c(-c2ccc3nc(NC(=O)[C@@H]4C[C@@H]4F)cn3c2)c2cn[nH]c12 [Example 422, (1S,2S)-N-(6-(5-chloro-6-fluoro-7-((R)-1-methoxypropan-2-yl)-1H-indazol-4-yl)imidazo[1,2-a]pyridin-2-yl)-2-fluorocyclopropane-1-carboxamide] | < 100 nM
11 | O=C(Nc1nc2ccc(-c3c(C(F)(F)F)c(F)c(Cl)c4[nH]ncc34)nc2s1)[C@@H]1C[C@@H]1F [Example 198, (1S,2S)-N-(5-(7-chloro-6-fluoro-5-(trifluoromethyl)-1H-indazol-4-yl)thiazolo[5,4-b]pyridin-2-yl)-2-fluorocyclopropane-1-carboxamide] | < 100 nM
12 | CSc1c(F)c(Cl)c(-c2ccn3nc(NC(=O)O[C@@H]4COC[C@H]4C)cc3c2)c2cn[nH]c12 [Example 645, (3S,4R)-4-methyltetrahydrofuran-3-yl (5-(5-chloro-6-fluoro-7-(methylthio)-1H-indazol-4-yl)pyrazolo[1,5-a]pyridin-2-yl)carbamate] | < 100 nM
13 | CC(NC=O)c1c(F)c(Cl)c(-c2ccc3nc(NC(=O)[C@@H]4C[C@@H]4F)cn3c2)c2cn[nH]c12 (stereo partly drawn) [Example 426, (1S,2S)-N-(6-(5-chloro-6-fluoro-7-(1-formamidoethyl)-1H-indazol-4-yl)imidazo[1,2-a]pyridin-2-yl)-2-fluorocyclopropane-1-carboxamide] | < 100 nM
14 | Cc1c(F)c(I)c2[nH]ncc2c1-c1ccc2nc(NC(=O)[C@@H]3C[C@@H]3F)sc2c1 [Example 67, (1S,2S)-2-fluoro-N-(6-(6-fluoro-7-iodo-5-methyl-1H-indazol-4-yl)benzo[d]thiazol-2-yl)cyclopropane-1-carboxamide] | < 100 nM
15 | CSc1ccc(-c2ccc3nc(NC(=O)[C@@H]4C[C@@H]4F)sc3n2)c2cn[nH]c12 [Example 212, (1S,2S)-2-fluoro-N-(5-(7-(methylthio)-1H-indazol-4-yl)thiazolo[5,4-b]pyridin-2-yl)cyclopropane-1-carboxamide] | > 1000 nM
16 | CC(C)N(C)c1c(F)c(Cl)c(-c2ccn3nc(NC(=O)[C@@H]4C[C@@H]4F)cc3c2)c2cn[nH]c12 [Example 622, (1S,2S)-N-(5-(5-chloro-6-fluoro-7-(isopropyl(methyl)amino)-1H-indazol-4-yl)pyrazolo[1,5-a]pyridin-2-yl)-2-fluorocyclopropane-1-carboxamide] | < 100 nM
17 | COC(=O)c1c(F)c(Cl)c(-c2ccc3nc(NC(=O)[C@@H]4C[C@@H]4F)sc3c2)c2cn[nH]c12 [Example 122, methyl 5-chloro-6-fluoro-4-(2-((1S,2S)-2-fluorocyclopropane-1-carboxamido)benzo[d]thiazol-6-yl)-1H-indazole-7-carboxylate] | < 100 nM
18 | CN(C)C(=O)c1c(F)cc(-c2ccn3nc(NC(=O)[C@@H]4C[C@@H]4F)cc3c2)c2cn[nH]c12 [Example 604, 6-fluoro-4-(2-((1S,2S)-2-fluorocyclopropane-1-carboxamido)pyrazolo[1,5-a]pyridin-5-yl)-N,N-dimethyl-1H-indazole-7-carboxamide] | 101 to 500 nM
19 | CC(NC1(C#N)CC1)c1c(F)c(Cl)c(-c2ccc3nc(NC(=O)[C@@H]4C[C@@H]4F)cn3c2)c2cn[nH]c12 (stereo partly drawn) [Example 429, (1S,2S)-N-(6-(5-chloro-7-(1-((1-cyanocyclopropyl)amino)ethyl)-6-fluoro-1H-indazol-4-yl)imidazo[1,2-a]pyridin-2-yl)-2-fluorocyclopropane-1-carboxamide] | < 100 nM
20 | CC(C#N)Nc1c(F)c(Cl)c(-c2ccn3nc(NC(=O)[C@@H]4C[C@@H]4F)cc3c2)c2cn[nH]c12 (stereo partly drawn) [Example 641, (1S,2S)-N-(5-(5-chloro-7-((1-cyanoethyl)amino)-6-fluoro-1H-indazol-4-yl)pyrazolo[1,5-a]pyridin-2-yl)-2-fluorocyclopropane-1-carboxamide] | < 100 nM
21 | O=C(Nc1cn2cc(-c3c(Cl)c(F)c(Cn4ncnn4)c4[nH]ncc34)ccc2n1)[C@@H]1C[C@@H]1F [Example 379, (1S,2S)-N-(6-(7-((2H-tetrazol-2-yl)methyl)-5-chloro-6-fluoro-1H-indazol-4-yl)imidazo[1,2-a]pyridin-2-yl)-2-fluorocyclopropane-1-carboxamide] | < 100 nM
22 | O=C(Nc1cn2cc(-c3c(Cl)c(F)c(OC4CC4)c4[nH]ncc34)ccc2n1)[C@@H]1C[C@@H]1F [Example 401, (1S,2S)-N-(6-(5-chloro-7-cyclopropoxy-6-fluoro-1H-indazol-4-yl)imidazo[1,2-a]pyridin-2-yl)-2-fluorocyclopropane-1-carboxamide] | < 100 nM
23 | CN(c1c(F)c(Cl)c(-c2ccn3nc(NC(=O)[C@@H]4C[C@@H]4F)cc3c2)c2cn[nH]c12)C1CCC(N)C1 (stereo partly drawn) [Example 527, (1S,2S)-N-(5-(7-((3-aminocyclopentyl)(methyl)amino)-5-chloro-6-fluoro-1H-indazol-4-yl)pyrazolo[1,5-a]pyridin-2-yl)-2-fluorocyclopropane-1-carboxamide] | < 100 nM
24 | CCNc1c(F)c(Cl)c(-c2ccc3nc(NC(=O)[C@@H]4C[C@@H]4F)cn3c2)c2cn[nH]c12 [Example 280, (1S,2S)-N-(6-(5-chloro-7-(ethylamino)-6-fluoro-1H-indazol-4-yl)imidazo[1,2-a]pyridin-2-yl)-2-fluorocyclopropane-1-carboxamide] | < 100 nM
25 | CN(Nc1c(F)c(Cl)c(-c2ccc3nc(NC(=O)[C@@H]4C[C@@H]4F)cn3c2)c2cn[nH]c12)C(=O)OC(C)(C)C [Example 309, tert-butyl 2-(5-chloro-6-fluoro-4-(2-((1S,2S)-2-fluorocyclopropane-1-carboxamido)imidazo[1,2-a]pyridin-6-yl)-1H-indazol-7-yl)-1-methylhydrazine-1-carboxylate] | < 100 nM
26 | O=C(Nc1nc2ccc(-c3c(Cl)c(F)c(C(F)F)c4[nH]ncc34)nc2s1)[C@@H]1C[C@@H]1F [Example 209, (1S,2S)-N-(5-(5-chloro-7-(difluoromethyl)-6-fluoro-1H-indazol-4-yl)thiazolo[5,4-b]pyridin-2-yl)-2-fluorocyclopropane-1-carboxamide] | < 100 nM
27 | O=C(Nc1nc2ccc(-c3c(C4CC4)c(F)cc4[nH]ncc34)nc2s1)[C@@H]1C[C@@H]1F [Example 158, (1S,2S)-N-(5-(5-cyclopropyl-6-fluoro-1H-indazol-4-yl)thiazolo[5,4-b]pyridin-2-yl)-2-fluorocyclopropane-1-carboxamide] | 101 to 500 nM
28 | CC(C)Nc1c(F)c(Cl)c(-c2cc(N)c3nc(NC(=O)[C@@H]4C[C@@H]4F)cn3c2)c2cn[nH]c12 [Example 403, (1S,2S)-N-(8-amino-6-(5-chloro-6-fluoro-7-(isopropylamino)-1H-indazol-4-yl)imidazo[1,2-a]pyridin-2-yl)-2-fluorocyclopropane-1-carboxamide. 1 formic acid] | > 1000 nM
29 | CCOc1c(F)cc2[nH]ncc2c1-c1ccn2nc(NC(=O)[C@@H]3C[C@@H]3F)cc2c1 [Example 578, (1S,2S)-N-(5-(5-ethoxy-6-fluoro-1H-indazol-4-yl)pyrazolo[1,5-a]pyridin-2-yl)-2-fluorocyclopropane-1-carboxamide] | < 100 nM
